{"source": "patent US9670226B2", "about": "“Sesquiterpenoids” (National Institute of Biological Sciences, Beijing, priority 2014, dated 2017)", "key": {"[1]": {"system": "LPS-triggered inflammatory response (serum TNF-α, IL-6, IL-1β)", "assay": "LPS induced inflammatory cytokines in vivo", "conditions": "mice pre-injected with compound, then LPS", "text": "(+)-Ainsliadimer A (223) is a structurally unique and complex sesquiterpene lactone dimer with an unprecedented carbon skeleton, which was originally isolated from Ainsliaea macrocephala used in traditional Chinese medicine for the treatment of various diseases, including angina and rheumatoid arthritis^22. Aiming for the systematical chemical genetic studies using bioactive natural products, we have successfully accomplished the first enantioselective total syntheses of 223 as well as other related dimeric and trimeric sesquiterpenoids^23-25, which provided us ample material to extensively investigate their biological activities and potential therapy application. […] As an endotoxin, LPS is known to cause a systemic inflammatory response and acute tissue injury when injected into mice. Thus, we attempt to examine the effect of 223 on LPS-triggered inflammatory response in vivo. Mice were pre-injected with or without vehicle or 223, and then followed by administration of PBS or LPS."}, "phosphorylation of IκBα [2]": {"system": "phosphorylation of IκBα", "assay": "LPS induced NF-κB activation: IκBα phosphorylation in RAW264.7 cells (western blot)", "type": "cell-based, mouse"}, "IFR3 phosphorylation": {"system": "IFR3 phosphorylation", "assay": "LPS-induced type I interferon (IFN) responses", "type": "cell-based"}, "phosphorylation of IκBα [3]": {"system": "phosphorylation of IκBα", "assay": "poly(I:C) (TLR3 ligand) triggered IκBα phosphorylation", "type": "cell-based"}, "TAK1": {"molecular_target": "TAK1 (Homo sapiens, UniProt O43318)", "sequence (O43318 whole entry)": "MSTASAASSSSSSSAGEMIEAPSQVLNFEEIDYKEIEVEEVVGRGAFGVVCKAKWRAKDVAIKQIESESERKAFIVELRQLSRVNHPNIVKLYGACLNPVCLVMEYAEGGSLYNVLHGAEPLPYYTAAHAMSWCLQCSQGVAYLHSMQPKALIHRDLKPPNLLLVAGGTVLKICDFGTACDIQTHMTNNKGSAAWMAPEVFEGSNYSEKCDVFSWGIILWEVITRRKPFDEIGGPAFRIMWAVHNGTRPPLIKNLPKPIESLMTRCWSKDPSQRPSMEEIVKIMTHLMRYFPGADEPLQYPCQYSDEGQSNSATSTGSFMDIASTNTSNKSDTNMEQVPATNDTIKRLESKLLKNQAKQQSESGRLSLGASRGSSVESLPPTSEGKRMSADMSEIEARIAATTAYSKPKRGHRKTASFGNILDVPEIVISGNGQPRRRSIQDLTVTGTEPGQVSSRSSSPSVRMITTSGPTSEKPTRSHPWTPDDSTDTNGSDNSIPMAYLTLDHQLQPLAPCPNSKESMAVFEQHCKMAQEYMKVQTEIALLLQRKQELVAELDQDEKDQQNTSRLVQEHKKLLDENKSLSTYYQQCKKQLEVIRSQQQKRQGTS", "assay": "Association with other NF-κB pathway proteins", "type": "binding"}, "TAB1": {"molecular_target": "TAB1 (Homo sapiens, UniProt Q15750)", "sequence (Q15750 whole entry, species assumed)": "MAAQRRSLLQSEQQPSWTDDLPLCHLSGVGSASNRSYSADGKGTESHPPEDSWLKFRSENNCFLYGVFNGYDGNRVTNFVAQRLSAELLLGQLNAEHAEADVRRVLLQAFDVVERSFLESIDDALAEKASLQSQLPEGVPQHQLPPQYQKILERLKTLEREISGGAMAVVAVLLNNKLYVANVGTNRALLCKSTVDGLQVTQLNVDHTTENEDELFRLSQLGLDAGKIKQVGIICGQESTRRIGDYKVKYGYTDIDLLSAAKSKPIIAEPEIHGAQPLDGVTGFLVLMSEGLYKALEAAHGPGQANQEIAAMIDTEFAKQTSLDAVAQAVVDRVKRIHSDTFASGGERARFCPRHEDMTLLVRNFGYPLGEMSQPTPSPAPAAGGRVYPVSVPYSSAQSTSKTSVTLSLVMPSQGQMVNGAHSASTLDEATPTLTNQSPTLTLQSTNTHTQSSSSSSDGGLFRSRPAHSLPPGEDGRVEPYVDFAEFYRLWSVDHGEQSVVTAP", "assay": "Association with other NF-κB pathway proteins", "type": "binding"}, "IKKβ Cys46 into serine": {"molecular_target": "T1, IKKβ Cys46 into serine (Homo sapiens, UniProt O14920, C46S)", "T1 construct": "Flag; made in house", "T1 sequence (O14920 whole entry C46S)": "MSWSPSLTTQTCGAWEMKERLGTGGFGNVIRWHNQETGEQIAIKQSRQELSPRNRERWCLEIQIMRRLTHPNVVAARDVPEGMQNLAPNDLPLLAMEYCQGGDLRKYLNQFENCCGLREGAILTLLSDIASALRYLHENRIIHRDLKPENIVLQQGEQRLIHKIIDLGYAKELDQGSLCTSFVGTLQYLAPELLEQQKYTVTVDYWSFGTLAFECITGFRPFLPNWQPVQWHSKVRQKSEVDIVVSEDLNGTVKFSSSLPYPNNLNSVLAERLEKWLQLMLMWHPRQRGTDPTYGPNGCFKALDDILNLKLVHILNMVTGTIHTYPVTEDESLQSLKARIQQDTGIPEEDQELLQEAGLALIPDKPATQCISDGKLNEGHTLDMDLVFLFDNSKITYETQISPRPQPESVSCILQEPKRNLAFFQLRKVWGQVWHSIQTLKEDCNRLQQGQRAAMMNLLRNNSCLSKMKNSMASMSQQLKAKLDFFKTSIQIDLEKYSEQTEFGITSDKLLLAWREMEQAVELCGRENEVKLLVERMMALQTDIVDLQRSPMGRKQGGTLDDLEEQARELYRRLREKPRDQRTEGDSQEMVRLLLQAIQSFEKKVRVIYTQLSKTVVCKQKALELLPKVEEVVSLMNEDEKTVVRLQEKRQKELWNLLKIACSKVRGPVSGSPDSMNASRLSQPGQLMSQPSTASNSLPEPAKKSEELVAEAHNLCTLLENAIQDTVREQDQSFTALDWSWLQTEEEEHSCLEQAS", "assay": "Binding to Cys46-to-serine mutant"}, "glioblastoma T98G cells": {"system": "glioblastoma T98G cells", "assay": "Cancer cell survival", "type": "cell-based, human", "conditions": "different concentration"}, "cancer cells": {"system": "cancer cells", "assay": "Cell death in cancer cells (cell line not given)", "type": "cell-based", "conditions": "addition of DTT"}, "[4]": {"system": "production of NO in a mouse macrophage cell line RAW264.7", "conditions": "RAW264.7 stimulated by LPS; previously shown (ref 22); cited from earlier work"}, "[5]": {"system": "panel of structurally related kinases"}, "[6]": {"system": "IKKβ, other eight cysteine-to-alanine mutants", "assay": "Binding to IKKβ cysteine mutants", "from_the_text": "In order to evaluate which of them is critical for the binding of 223, we individually mutated these nine cysteine residues of IKKβ into alanines."}}, "data": [{"smiles": "C=C1C(=O)O[C@@H]2[C@@H]3[C@@H](C[C@@]4(O)[C@]3(O)CC[C@]43C(=O)C[C@H]4C(=C)CC[C@H]5C(=C)C(=O)O[C@@H]5[C@H]43)C(=C)CC[C@@H]12", "note": "[Compound 223, (+)-Ainsliadimer A]", "values": [{"measurement": "up-regulation of serum IL-1β", "setting": "[1]", "result": "greatly attenuated"}, {"measurement": "up-regulation of serum IL-6", "setting": "[1]", "result": "greatly attenuated"}, {"measurement": "up-regulation of serum TNF-α", "setting": "[1]", "result": "greatly attenuated"}, {"measurement": "inhibitory effect against LPS-induced NF-κB activation in comparison with BMS-345541", "setting": "phosphorylation of IκBα [2]; RAW264.7 cells", "result": "much stronger inhibitory effect"}, {"measurement": "concentration that effectively blocks phosphorylation of IκBα", "setting": "phosphorylation of IκBα [2]; RAW264.7 cells, pre-treatment, LPS for 10 or 20 minutes", "result": "about 8 μM"}, {"measurement": "phosphorylation of IκBα", "setting": "phosphorylation of IκBα [2]; Raw 264.7 cells pre-incubated with 4 μM for 2 h, 20 ng/ml LPS, 20 minutes, western blot", "result": "effectively blocked"}, {"measurement": "effect on LPS-induced type I interferon (IFN) responses (IFR3 phosphorylation)", "setting": "IFR3 phosphorylation", "result": "no effect"}, {"measurement": "phosphorylation of IκBα triggered by poly(I:C)", "setting": "phosphorylation of IκBα [3]", "result": "markedly suppressed"}, {"measurement": "association with TAK1", "setting": "TAK1", "result": "no association"}, {"measurement": "association with TAB1", "setting": "TAB1", "result": "no association"}, {"measurement": "interaction with IKKβ Cys46 to serine mutant", "setting": "IKKβ Cys46 into serine", "result": "abolished"}, {"measurement": "cell death", "setting": "glioblastoma T98G cells", "result": "Dramatic cell death"}, {"measurement": "compound-triggered inhibition of cell survival", "setting": "cancer cells", "result": "completely abolished"}, {"measurement": "inhibitory activity against the production of NO", "setting": "[4]", "result": "inhibitory activity"}, {"measurement": "selectivity against a panel of structurally related kinases", "setting": "[5]", "result": "excellent selectivity"}, {"measurement": "binding of other eight IKKβ cysteine mutants", "setting": "[6]", "result": "retained high affinity binding"}]}]}
